Several values for one entry are separate records, joined by “and”; a condition that tells them apart may be missing. Equal values may be shown once. Read-outs that look alike come from different tables or passages of the source.
Key:
MCF-7 = assay: In vitro anti-estrogenic activity assay, MCF-7
[1] = molecular target: T1, aromatase (CYP19A, EC 1.14.14.14) (Homo sapiens, UniProt P11511); assay: biochemical; details: individual Data 1-3
T1 construct: Microsomal samples were isolated from tissue using the Microsome Isolation Kit; tissue BioVision K983-100; host or cells: microsomes from an unnamed tissue
T1 sequence (P11511 1-503): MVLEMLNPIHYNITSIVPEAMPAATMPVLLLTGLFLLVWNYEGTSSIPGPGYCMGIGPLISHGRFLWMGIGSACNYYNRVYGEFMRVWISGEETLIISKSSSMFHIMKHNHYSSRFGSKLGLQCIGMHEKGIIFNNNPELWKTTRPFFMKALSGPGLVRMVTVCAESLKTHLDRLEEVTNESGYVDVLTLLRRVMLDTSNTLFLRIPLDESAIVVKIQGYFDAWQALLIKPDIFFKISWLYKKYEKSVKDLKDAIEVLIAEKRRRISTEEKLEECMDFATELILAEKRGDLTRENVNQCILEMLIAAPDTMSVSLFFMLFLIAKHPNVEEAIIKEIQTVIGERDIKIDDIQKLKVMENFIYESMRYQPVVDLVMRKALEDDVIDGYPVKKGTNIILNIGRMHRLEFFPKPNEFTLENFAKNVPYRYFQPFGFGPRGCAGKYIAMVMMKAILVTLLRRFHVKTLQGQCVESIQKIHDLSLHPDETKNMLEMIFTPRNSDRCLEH
Description: In vitro aromatase assay was performed using the BioVision Aromatase Activity Assay Kit (Catalog # K983-100; BioVision, Milpitas, CA, USA). Microsomal samples were isolated from tissue using the Microsome Isolation Kit (Cat. #K249; BioVision, Milpitas, CA, USA). A standard curve was established by diluting the Fluorescence Standard provided in the kit to create a 0.5 pmole/µL solution, followed by setting up a series of standards in a white 96-well plate, adjusting the total volume to 100 µL with aromatase assay buffer. For each reaction well, a 2X concentrated mix was prepared by adding 2–48 µL of the microsomal sample and 2 µL of the NADPH generating system, bringing the final volume to 50 µL with aromatase assay buffer. Background controls (no enzyme) and positive controls (with recombinant aromatase) were included. […] After a 10 min incubation at 37 °C, 30 µL of the substrate/NADP+ mixture was added to each well, and fluorescence was measured immediately in kinetic mode for 60 min at 37 °C. Finally, the change in fluorescence was calculated to determine the specific activity of aromatase using the formula provided in the kit protocol.

EGFR = EGFR (Homo sapiens, UniProt P00533); assay: In vitro protein kinase inhibition assay (ELISA kit), EGFR
EGFR, sequence (P00533 25-1210): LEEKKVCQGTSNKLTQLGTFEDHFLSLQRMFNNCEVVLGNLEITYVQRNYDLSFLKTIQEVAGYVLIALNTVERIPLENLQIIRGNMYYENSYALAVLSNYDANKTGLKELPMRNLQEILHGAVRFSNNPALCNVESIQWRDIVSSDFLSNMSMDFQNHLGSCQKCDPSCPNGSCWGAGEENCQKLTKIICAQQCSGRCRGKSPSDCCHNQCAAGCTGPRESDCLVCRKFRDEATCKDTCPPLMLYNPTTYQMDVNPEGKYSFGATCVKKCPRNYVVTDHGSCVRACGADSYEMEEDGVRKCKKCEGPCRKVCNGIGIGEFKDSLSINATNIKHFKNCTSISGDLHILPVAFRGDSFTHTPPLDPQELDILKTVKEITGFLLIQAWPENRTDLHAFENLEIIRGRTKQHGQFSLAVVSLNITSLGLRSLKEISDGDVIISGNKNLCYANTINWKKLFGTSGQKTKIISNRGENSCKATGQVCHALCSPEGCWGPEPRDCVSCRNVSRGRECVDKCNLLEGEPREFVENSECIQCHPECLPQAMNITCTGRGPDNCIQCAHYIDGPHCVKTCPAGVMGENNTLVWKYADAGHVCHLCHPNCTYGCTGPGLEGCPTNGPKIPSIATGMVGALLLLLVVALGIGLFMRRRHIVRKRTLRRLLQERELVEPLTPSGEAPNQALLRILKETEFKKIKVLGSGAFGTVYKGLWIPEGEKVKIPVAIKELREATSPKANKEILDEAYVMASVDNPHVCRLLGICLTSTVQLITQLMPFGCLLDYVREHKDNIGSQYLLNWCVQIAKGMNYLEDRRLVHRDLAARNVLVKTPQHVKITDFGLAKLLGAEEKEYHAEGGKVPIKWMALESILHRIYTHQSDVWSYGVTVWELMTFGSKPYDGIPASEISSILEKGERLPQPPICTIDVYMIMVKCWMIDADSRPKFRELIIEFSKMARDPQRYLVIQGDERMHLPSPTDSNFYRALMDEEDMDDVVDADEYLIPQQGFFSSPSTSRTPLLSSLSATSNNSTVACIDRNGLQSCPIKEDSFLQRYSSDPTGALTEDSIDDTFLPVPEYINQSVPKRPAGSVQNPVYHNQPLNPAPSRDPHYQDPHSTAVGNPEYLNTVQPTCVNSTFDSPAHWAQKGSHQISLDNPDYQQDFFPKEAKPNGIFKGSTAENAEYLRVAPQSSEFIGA

HER2 = HER2 (Homo sapiens, UniProt P04626); assay: In vitro protein kinase inhibition assay (ELISA kit), HER2
HER2, sequence (P04626 23-1255): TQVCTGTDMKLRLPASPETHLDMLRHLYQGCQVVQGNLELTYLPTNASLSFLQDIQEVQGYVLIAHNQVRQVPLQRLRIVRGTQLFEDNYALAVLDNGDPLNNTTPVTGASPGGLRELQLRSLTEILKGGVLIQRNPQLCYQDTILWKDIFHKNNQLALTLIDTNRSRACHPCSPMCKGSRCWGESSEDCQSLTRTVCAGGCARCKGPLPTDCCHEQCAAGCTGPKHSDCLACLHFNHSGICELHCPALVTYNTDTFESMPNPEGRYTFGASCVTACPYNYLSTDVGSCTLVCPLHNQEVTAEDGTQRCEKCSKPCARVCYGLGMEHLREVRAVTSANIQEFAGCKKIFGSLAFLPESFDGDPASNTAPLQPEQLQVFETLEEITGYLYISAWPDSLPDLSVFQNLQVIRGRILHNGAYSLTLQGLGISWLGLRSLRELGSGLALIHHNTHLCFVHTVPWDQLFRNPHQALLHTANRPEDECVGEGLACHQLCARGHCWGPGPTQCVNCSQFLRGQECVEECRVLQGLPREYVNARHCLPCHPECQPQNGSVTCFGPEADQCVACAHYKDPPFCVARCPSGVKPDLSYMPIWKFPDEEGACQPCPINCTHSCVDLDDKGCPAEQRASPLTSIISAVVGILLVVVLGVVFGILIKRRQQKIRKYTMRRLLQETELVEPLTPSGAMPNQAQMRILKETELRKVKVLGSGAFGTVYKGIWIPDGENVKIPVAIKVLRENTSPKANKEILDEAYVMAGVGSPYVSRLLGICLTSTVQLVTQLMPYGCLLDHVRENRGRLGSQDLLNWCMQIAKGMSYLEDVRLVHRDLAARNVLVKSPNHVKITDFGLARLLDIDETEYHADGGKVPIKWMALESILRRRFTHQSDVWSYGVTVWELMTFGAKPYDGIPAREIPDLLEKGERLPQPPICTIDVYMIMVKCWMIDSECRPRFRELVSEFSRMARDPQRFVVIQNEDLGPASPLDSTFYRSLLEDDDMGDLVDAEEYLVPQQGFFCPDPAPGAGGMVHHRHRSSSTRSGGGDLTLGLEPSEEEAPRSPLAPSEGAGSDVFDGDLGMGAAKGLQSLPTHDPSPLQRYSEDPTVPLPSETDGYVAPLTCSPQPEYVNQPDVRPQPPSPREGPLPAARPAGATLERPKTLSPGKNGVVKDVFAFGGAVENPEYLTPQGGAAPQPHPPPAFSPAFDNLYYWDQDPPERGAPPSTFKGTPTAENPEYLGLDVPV

CDK2 = CDK2 (Homo sapiens, UniProt P24941); assay: In vitro protein kinase inhibition assay (ELISA kit), CDK2
MCF-7a = assay: In vitro anti-estrogenic activity assay, MCF-7a
VEGFR-2 = VEGFR-2 (Homo sapiens, UniProt P35968); assay: In vitro protein kinase inhibition assay (ELISA kit), VEGFR-2
VEGFR-2, sequence (P35968 20-1356): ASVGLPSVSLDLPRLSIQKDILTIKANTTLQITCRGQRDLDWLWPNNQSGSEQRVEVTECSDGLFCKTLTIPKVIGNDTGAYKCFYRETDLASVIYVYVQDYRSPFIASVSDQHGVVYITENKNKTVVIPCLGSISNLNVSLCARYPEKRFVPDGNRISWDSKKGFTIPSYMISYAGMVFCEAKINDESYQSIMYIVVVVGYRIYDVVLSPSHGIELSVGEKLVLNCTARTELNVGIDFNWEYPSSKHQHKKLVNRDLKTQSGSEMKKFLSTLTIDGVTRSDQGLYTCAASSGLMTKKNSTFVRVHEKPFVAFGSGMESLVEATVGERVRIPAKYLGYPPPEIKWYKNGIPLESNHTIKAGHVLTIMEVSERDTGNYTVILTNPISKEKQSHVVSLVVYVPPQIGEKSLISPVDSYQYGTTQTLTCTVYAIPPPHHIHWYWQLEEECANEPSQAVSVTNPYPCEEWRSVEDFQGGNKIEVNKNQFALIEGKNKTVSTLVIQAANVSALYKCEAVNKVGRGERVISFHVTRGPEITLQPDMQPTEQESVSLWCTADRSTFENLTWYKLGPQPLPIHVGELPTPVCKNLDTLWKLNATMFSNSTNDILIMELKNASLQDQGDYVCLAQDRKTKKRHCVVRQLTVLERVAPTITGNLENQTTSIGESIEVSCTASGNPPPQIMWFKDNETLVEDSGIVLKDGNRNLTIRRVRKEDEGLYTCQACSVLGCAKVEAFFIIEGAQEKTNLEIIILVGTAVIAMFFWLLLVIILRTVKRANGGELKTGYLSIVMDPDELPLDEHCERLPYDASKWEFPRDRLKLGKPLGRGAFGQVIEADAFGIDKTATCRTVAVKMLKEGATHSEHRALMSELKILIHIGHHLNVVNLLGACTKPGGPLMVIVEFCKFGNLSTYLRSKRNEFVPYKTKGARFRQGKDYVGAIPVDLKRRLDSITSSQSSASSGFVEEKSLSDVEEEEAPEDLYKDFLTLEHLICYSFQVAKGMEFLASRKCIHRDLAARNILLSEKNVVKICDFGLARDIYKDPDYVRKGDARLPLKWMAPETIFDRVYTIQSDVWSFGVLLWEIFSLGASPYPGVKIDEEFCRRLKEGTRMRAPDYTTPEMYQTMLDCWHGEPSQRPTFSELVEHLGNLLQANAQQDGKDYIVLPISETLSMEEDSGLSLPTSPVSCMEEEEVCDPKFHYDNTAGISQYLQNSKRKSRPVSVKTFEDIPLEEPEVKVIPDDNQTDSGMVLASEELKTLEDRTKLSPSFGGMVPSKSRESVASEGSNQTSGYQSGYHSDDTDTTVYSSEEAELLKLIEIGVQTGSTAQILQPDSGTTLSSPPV

[2] = test system: HCT-116, MDA-MB-231, HeLa, and MCF-7; assay: MTT cytotoxicity assay, ranges stated over several cell lines; assay type: cell-based; details: Homo sapiens, range over the compounds named
Description: Subsequently, 100 µL of dimethyl sulfoxide was introduced to dissolve the insoluble formazan.

[3] = cell count relative to the control (17β-E2)

`O=C(/C=C/c1ccccc1)c1ccccc1` [Compound 4a, (E)-Chalcone] was tested. Which “Cell Proliferation MCF-7 %” value (MCF-7; [3]) did it give?
Its value is 79%.

What about the “Cell Proliferation MCF-7 Cell Count” value (MCF-7; mean ± SD of triplicate) of the same compound?
The value was 14,553 ± 518.

What about the “Reduction of growth/cell count (inhibition) in MCF-7” value (MCF-7; relative to control) of the same compound?
Its value is 21%.

What about the “Inhibition (%) Aromatase” value ([1]; 0.01 µM) of the same compound?
The value was 19.87% and 20.56%.

And the “Inhibition (%) Aromatase” value ([1]; 0.1 µM)?
The value was 28.65% and 29.76%.

And the “Inhibition (%) Aromatase” value ([1]; 1 µM)?
The value was 63% and 62.76%.

And the “Inhibition (%) Aromatase” value ([1]; 10 µM)?
The value was 82.87% and 83.45%.

What about the “Inhibition (%) Aromatase” value ([1]; 100 µM) of the same compound?
The value was 92.23% and 94%.

And the inhibition at 0.01 µM ([1]; read-out: Inhibition (%) Aromatase, 0.01 µM)?
The inhibition at 0.01 µM was 20%.

What about the inhibition at 0.1 µM ([1]; read-out: Inhibition (%) Aromatase, 0.1 µM) of the same compound?
The inhibition at 0.1 µM was 29%.

And the inhibition at 1 µM ([1]; read-out: Inhibition (%) Aromatase, 1 µM)?
The inhibition at 1 µM was 64%.

And the inhibition at 10 µM ([1]; read-out: Inhibition (%) Aromatase, 10 µM)?
Its inhibition at 10 µM is 83%.

And the inhibition at 100 µM ([1]; read-out: Inhibition (%) Aromatase, 100 µM)?
Its inhibition at 100 µM is 93%.

And the IC50 (EGFR)?
The IC50 was 367 ± 12 nM.

What about the “Inhibition (%) EGFR” value (EGFR; 0.01 µM, individual Data 1-3) of the same compound?
Its value is 10.8% and 13.9%.

And the “Inhibition (%) EGFR” value (EGFR; 0.1 µM, individual Data 1-3)?
The value was 34.2% and 37.1%.

And the “Inhibition (%) EGFR” value (EGFR; 1 µM, individual Data 1-3)?
Its value is 68.2% and 66.7%.

And the “Inhibition (%) EGFR” value (EGFR; 10 µM, individual Data 1-3)?
The value was 83.2% and 86.9%.

And the “Inhibition (%) EGFR” value (EGFR; 100 µM, individual Data 1-3)?
Its value is 93.9% and 94.2%.

And the inhibition at 0.01 µM (EGFR; read-out: Inhibition (%) EGFR, 0.01 µM, individual Data 1-3)?
The inhibition at 0.01 µM was 12.3%.

And the inhibition at 0.1 µM (EGFR; read-out: Inhibition (%) EGFR, 0.1 µM, individual Data 1-3)?
The inhibition at 0.1 µM was 35.8%.

What about the inhibition at 1 µM (EGFR; read-out: Inhibition (%) EGFR, 1 µM, individual Data 1-3) of the same compound?
The inhibition at 1 µM was 69.9%.

What about the inhibition at 10 µM (EGFR; read-out: Inhibition (%) EGFR, 10 µM, individual Data 1-3) of the same compound?
The inhibition at 10 µM was 85.6%.

And the inhibition at 100 µM (EGFR; read-out: Inhibition (%) EGFR, 100 µM, individual Data 1-3)?
Its inhibition at 100 µM is 95.1%.

And the IC50 (HER2)?
The IC50 was 691 ± 27 nM.

And the “Inhibition (%) Her2” value (HER2; 0.01 µM, individual Data 1-3)?
The value was 10.6% and 14.2%.

And the “Inhibition (%) Her2” value (HER2; 0.1 µM, individual Data 1-3)?
The value was 21.8% and 24.9%.

And the “Inhibition (%) Her2” value (HER2; 1 µM, individual Data 1-3)?
The value was 60.9% and 59.5%.

And the “Inhibition (%) Her2” value (HER2; 10 µM, individual Data 1-3)?
Its value is 78% and 81.2%.

What about the “Inhibition (%) Her2” value (HER2; 100 µM, individual Data 1-3) of the same compound?
The value was 89.9% and 93.1%.

And the inhibition at 0.01 µM (HER2; read-out: Inhibition (%) Her2, 0.01 µM, individual Data 1-3)?
The inhibition at 0.01 µM was 12.3%.

And the inhibition at 0.1 µM (HER2; read-out: Inhibition (%) Her2, 0.1 µM, individual Data 1-3)?
Its inhibition at 0.1 µM is 23.8%.

And the inhibition at 1 µM (HER2; read-out: Inhibition (%) Her2, 1 µM, individual Data 1-3)?
Its inhibition at 1 µM is 62.2%.

And the inhibition at 10 µM (HER2; read-out: Inhibition (%) Her2, 10 µM, individual Data 1-3)?
The inhibition at 10 µM was 79.1%.

What about the inhibition at 100 µM (HER2; read-out: Inhibition (%) Her2, 100 µM, individual Data 1-3) of the same compound?
Its inhibition at 100 µM is 91%.

And the IC50 (CDK2)?
The IC50 was 840 ± 26 nM.

And the “Inhibition (%) CDK2” value (CDK2; 0.01 µM, individual Data 1-3)?
The value was 9.7% and 12%.

And the “Inhibition (%) CDK2” value (CDK2; 0.1 µM, individual Data 1-3)?
The value was 25.6% and 28.78%.

What about the “Inhibition (%) CDK2” value (CDK2; 1 µM, individual Data 1-3) of the same compound?
The value was 53.8% and 52.78%.

And the “Inhibition (%) CDK2” value (CDK2; 10 µM, individual Data 1-3)?
The value was 72.98% and 76%.

And the “Inhibition (%) CDK2” value (CDK2; 100 µM, individual Data 1-3)?
The value was 88.7% and 92.7%.

What about the inhibition at 0.01 µM (CDK2; read-out: Inhibition (%) CDK2, 0.01 µM, individual Data 1-3) of the same compound?
Its inhibition at 0.01 µM is 11.8%.

What about the inhibition at 0.1 µM (CDK2; read-out: Inhibition (%) CDK2, 0.1 µM, individual Data 1-3) of the same compound?
Its inhibition at 0.1 µM is 27.7%.

What about the inhibition at 1 µM (CDK2; read-out: Inhibition (%) CDK2, 1 µM, individual Data 1-3) of the same compound?
Its inhibition at 1 µM is 54%.

What about the inhibition at 10 µM (CDK2; read-out: Inhibition (%) CDK2, 10 µM, individual Data 1-3) of the same compound?
The inhibition at 10 µM was 74.1%.

And the inhibition at 100 µM (CDK2; read-out: Inhibition (%) CDK2, 100 µM, individual Data 1-3)?
The inhibition at 100 µM was 90.3%.

What about the “Cell Proliferation MCF-7a %” value (MCF-7a; [3]) of the same compound?
The value was 102%.

And the “Cell Proliferation MCF-7a Cell Count” value (MCF-7a; mean ± SD of triplicate)?
Its value is 21,155 ± 611.

And the “Inhibition in MCF-7a” value (MCF-7a; relative to control)?
Its value is “no inhibition”.

And the IC50 (VEGFR-2)?
The IC50 was 1550 ± 53 nM.

What about the “Inhibition (%) VEGFR2” value (VEGFR-2; 0.01 µM, individual Data 1-3) of the same compound?
Its value is 4.43% and 2.43% and 5.78%.

What about the “Inhibition (%) VEGFR2” value (VEGFR-2; 0.1 µM, individual Data 1-3) of the same compound?
Its value is 19.78% and 23.4%.

What about the “Inhibition (%) VEGFR2” value (VEGFR-2; 1 µM, individual Data 1-3) of the same compound?
Its value is 40.5% and 38.5%.

What about the “Inhibition (%) VEGFR2” value (VEGFR-2; 10 µM, individual Data 1-3) of the same compound?
The value was 69% and 76.6%.

And the “Inhibition (%) VEGFR2” value (VEGFR-2; 100 µM, individual Data 1-3)?
Its value is 86.5% and 92.5%.

What about the inhibition at 0.1 µM (VEGFR-2; read-out: Inhibition (%) VEGFR2, 0.1 µM, individual Data 1-3) of the same compound?
The inhibition at 0.1 µM was 21.6%.

And the inhibition at 1 µM (VEGFR-2; read-out: Inhibition (%) VEGFR2, 1 µM, individual Data 1-3)?
The inhibition at 1 µM was 43.5%.

What about the inhibition at 10 µM (VEGFR-2; read-out: Inhibition (%) VEGFR2, 10 µM, individual Data 1-3) of the same compound?
The inhibition at 10 µM was 73.3%.

And the inhibition at 100 µM (VEGFR-2; read-out: Inhibition (%) VEGFR2, 100 µM, individual Data 1-3)?
The inhibition at 100 µM was 89.2%.

What about the IC50 ([2]; HCT-116 and HeLa, read-out: IC50 values, range against HCT-116 and HeLa) of the same compound?
The IC50 was 6590 to 22600 nM.

And the IC50 ([2]; MDA-MB-231 and MCF-7, read-out: IC50 values, range against MDA-MB-231 and MCF-7)?
Its IC50 is 2080 to 13600 nM.
